Test results taken from the supplement of paper PMC11451515.

Test system: SEM cells
Experiment: cell viability relative to DMSO control; higher = less cytotoxic
Conditions: 48 h
In short: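 Library compounds in DMSO were pin-dosed into 1536-well plates (5 μl) holding NOMO1 or SEM (500 cells/well) or P12-Ichikawa (1000 cells/well) leukemia cells, across an 11-point threefold series of 47 μM to 0.79 nM. Each cell line had been adapted for at least four passages in each medium. CellTiter-Glo One luminescence was read after 48 h at 37°C. Viability is the per-plate percentage relative to DMSO wells, with cell-free wells as background.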

[1] = HPLM + 10% dialyzed FBS, 0.000781 µM
[2] = HPLM + 10% dialyzed FBS, 0.00234 µM
[3] = HPLM + 10% dialyzed FBS, 0.00702 µM
[4] = HPLM + 10% dialyzed FBS, 0.0211 µM
[5] = HPLM + 10% dialyzed FBS, 0.0632 µM
[6] = HPLM + 10% dialyzed FBS, 0.19 µM
[7] = HPLM + 10% dialyzed FBS, 0.569 µM
[8] = HPLM + 10% dialyzed FBS, 1.71 µM
[9] = HPLM + 10% dialyzed FBS, 5.12 µM
[10] = HPLM + 10% dialyzed FBS, 15.4 µM
[11] = HPLM + 10% dialyzed FBS, 46.1 µM
[12] = RPMI 5 mM glucose + 10% FBS, 0.000781 µM
[13] = RPMI 5 mM glucose + 10% FBS, 0.00234 µM
[14] = RPMI 5 mM glucose + 10% FBS, 0.00702 µM
[15] = RPMI 5 mM glucose + 10% FBS, 0.0211 µM
[16] = RPMI 5 mM glucose + 10% FBS, 0.0632 µM
[17] = RPMI 5 mM glucose + 10% FBS, 0.19 µM
[18] = RPMI 5 mM glucose + 10% FBS, 0.569 µM
[19] = RPMI 5 mM glucose + 10% FBS, 1.71 µM
[20] = RPMI 5 mM glucose + 10% FBS, 5.12 µM
[21] = RPMI 5 mM glucose + 10% FBS, 15.4 µM
[22] = RPMI 5 mM glucose + 10% FBS, 46.1 µM
[23] = RPMI 5 mM glucose + 10% dialyzed FBS, 0.000781 µM
[24] = RPMI 5 mM glucose + 10% dialyzed FBS, 0.00234 µM
[25] = RPMI 5 mM glucose + 10% dialyzed FBS, 0.00702 µM
[26] = RPMI 5 mM glucose + 10% dialyzed FBS, 0.0211 µM
[27] = RPMI 5 mM glucose + 10% dialyzed FBS, 0.0632 µM
[28] = RPMI 5 mM glucose + 10% dialyzed FBS, 0.19 µM
[29] = RPMI 5 mM glucose + 10% dialyzed FBS, 0.569 µM
[30] = RPMI 5 mM glucose + 10% dialyzed FBS, 1.71 µM
[31] = RPMI 5 mM glucose + 10% dialyzed FBS, 5.12 µM
[32] = RPMI 5 mM glucose + 10% dialyzed FBS, 15.4 µM
[33] = RPMI 5 mM glucose + 10% dialyzed FBS, 46.1 µM

Row | SMILES | cell viability [1] [%] | cell viability [2] [%] | cell viability [3] [%] | cell viability [4] [%] | cell viability [5] [%] | cell viability [6] [%] | cell viability [7] [%] | cell viability [8] [%] | cell viability [9] [%] | cell viability [10] [%] | cell viability [11] [%] | cell viability [12] [%] | cell viability [13] [%] | cell viability [14] [%] | cell viability [15] [%] | cell viability [16] [%] | cell viability [17] [%] | cell viability [18] [%] | cell viability [19] [%] | cell viability [20] [%] | cell viability [21] [%] | cell viability [22] [%] | cell viability [23] [%] | cell viability [24] [%] | cell viability [25] [%] | cell viability [26] [%] | cell viability [27] [%] | cell viability [28] [%] | cell viability [29] [%] | cell viability [30] [%] | cell viability [31] [%] | cell viability [32] [%] | cell viability [33] [%]
1 | COC(=O)Nc1nc2cc(C(=O)c3ccc(F)cc3)ccc2[nH]1 | 103 | 95.4 | 102 | 91.1 | 98.6 | 97.9 | 51.3 | 40.1 | 33.2 | 26.2 | 47.8 | 95.5 | 105 | 110 | 100 | 92.8 | 95.4 | 77.6 | 40.4 | 32.7 | 28.2 | 52 | 83.6 | 98.8 | 103 | 117 | 115 | 109 | 79.3 | 52 | 45.8 | 37.7 | 52.1
2 | CCc1cc2c(cc1N1CCC(N3CCOCC3)CC1)C(C)(C)c1[nH]c3cc(C#N)ccc3c1C2=O | 60.6 | 55 | 70.7 | 102 | 122 | 121 | 114 | 99 | 95.6 | 70.2 | 28.1 | 53.8 | 49.4 | 71.1 | 77.1 | 107 | 107 | 103 | 96.7 | 88.3 | 46.7 | 12.8 | 60.3 | 54.3 | 73.8 | 97.7 | 111 | 129 | 103 | 114 | 108 | 70.8 | 20.3
3 | CCn1c(-c2nonc2N)nc2c(C#CC(C)(C)O)ncc(OC[C@H]3CCCNC3)c21 | 78.7 | 83.1 | 87.2 | 86.4 | 75.2 | 82.7 | 76.9 | 66.2 | 70.3 | 43 | 10.5 | 104 | 96.6 | 107 | 94.1 | 75.7 | 99.2 | 96.4 | 64.9 | 77.7 | 60 | 14.8 | 85.8 | 85.2 | 95.8 | 75.7 | 68.6 | 97.1 | 90.7 | 53.9 | 62.8 | 43.6 | 14.1
4 | COc1ccc(C(=O)c2c(C)n(CCN3CCOCC3)c3ccccc23)cc1 | 83.5 | 93.6 | 93.3 | 102 | 99.8 | 105 | 84.3 | 108 | 104 | 108 | 103 | 74.4 | 89 | 88.5 | 88.3 | 91.5 | 93.2 | 77.9 | 85.2 | 87.5 | 72.8 | 66.5 | 95.6 | 88.3 | 97.9 | 93.5 | 97.2 | 97.4 | 96.1 | 83.8 | 102 | 92.1 | 87.8
5 | OC1=CC2=C(C=C1)C(=O)\C(=C(O2)\C3=CC(=C(O)C=C3)O)O | 103 | 116 | 104 | 93.6 | 102 | 99.5 | 102 | 104 | 104 | 93.2 | 32.9 | 111 | 113 | 102 | 111 | 117 | 102 | 102 | 97 | 98.2 | 100 | 22.8 | 84.9 | 98.1 | 89.9 | 91.6 | 99.2 | 96.5 | 103 | 88.5 | 85.9 | 75.1 | 20.1
6 | O=S(=O)([O-])CCS.[Na+] | 96.5 | 104 | 100 | 96.9 | 113 | 113 | 122 | 107 | 100 | 116 | 107 | 101 | 102 | 89.6 | 124 | 107 | 115 | 109 | 124 | 112 | 123 | 122 | 109 | 104 | 108 | 108 | 114 | 137 | 130 | 135 | 121 | 137 | 155
7 | N[C@H]2CN(CC12CC1)c3c(F)cc4c(c3Cl)[N@@](C=C(C4=O)C(=O)O)C5C[C@H]5F (some centres undefined) | 90.7 | 93.2 | 89.9 | 88.9 | 92.2 | 86.4 | 84.3 | 84.7 | 90.5 | 60.6 | 84.6 | 107 | 126 | 112 | 119 | 103 | 136 | 73.2 | 113 | 103 | 74.6 | 95.4 | 71.1 | 83 | 92.4 | 83.8 | 92.2 | 92.5 | 75.6 | 98.6 | 91 | 50.1 | 78.7
8 | COc1ccc(OC)c(-c2nnc3ccc(-c4ccc(OC)c(O[C@@H]5CCOC5)c4)nn23)c1 | 105 | 106 | 124 | 115 | 119 | 127 | 125 | 123 | 134 | 119 | 86.4 | – | – | – | – | – | – | – | – | – | – | – | 103 | 109 | 117 | 115 | 116 | 112 | 123 | 131 | 117 | 122 | 89.7
9 | NC(=O)Nc1sc(-c2ccc(F)cc2)cc1C(N)=O | 99.3 | 113 | 115 | 110 | 96.7 | 125 | 119 | 103 | 90.5 | 61.7 | 18.3 | – | – | – | – | – | – | – | – | – | – | – | 112 | 116 | 117 | 103 | 125 | 109 | 106 | 97.2 | 75.1 | 55.9 | 11
10 | CCN(CCO)CCCOc1ccc2c(Nc3cc(CC(=O)Nc4cccc(F)c4)[nH]n3)ncnc2c1 | 118 | 103 | 110 | 119 | 105 | 82.5 | 40.6 | 32.3 | 34.8 | 20.6 | 15.9 | 114 | 94.6 | 118 | 102 | 119 | 76.4 | 22.4 | 19.7 | 21.9 | 12.2 | 5.9 | 100 | 113 | 108 | 109 | 104 | 73.8 | 25.5 | 22.2 | 25 | 13.1 | 4.04
11 | C[C@H](CCC(=O)O)[C@H]1CCC2C3C[C@H](O)[C@@H]4C[C@H](O)CC[C@]4(C)C3CC[C@@]21C (some centres undefined) | – | – | – | – | – | – | – | – | – | – | – | 109 | 122 | 129 | 131 | 135 | 102 | 103 | 117 | 123 | 107 | 108 | – | – | – | – | – | – | – | – | – | – | –
12 | O=C1CCC[C@@H]2[C@H]3CCCN4CCC[C@@H](CN12)[C@@H]34 | 44.2 | 65.4 | 55.2 | 65.6 | 72.7 | 73.2 | 72.3 | 78.1 | 67.5 | 71.3 | 73 | 73 | 87 | 75.5 | 82.4 | 92.8 | 92.2 | 93.2 | 84 | 63.1 | 80 | 72.6 | 60.4 | 79.1 | 62.4 | 89.7 | 73.9 | 82.6 | 77.6 | 72.3 | 64.2 | 68.5 | 68.3
13 | CCOC(=O)C(C#N)C\1C2=CC(=CC=C2O\C(=C1C(=O)OCC)N)Br (centres undefined) | 93.4 | 102 | 117 | 49.8 | 113 | 99.9 | 99.5 | 105 | 95.1 | 86.1 | 63.8 | 113 | 116 | 114 | 44.5 | 116 | 117 | 113 | 113 | 101 | 98 | 57.6 | 84.8 | 99.1 | 103 | 49.8 | 108 | 99.1 | 83.6 | 105 | 87.2 | 82.3 | 55.2
14 | O=C(NCCCCN1CCOCC1)c1cc2ccccc2o1 | – | – | – | – | – | – | – | – | – | – | – | 102 | 122 | 112 | 123 | 121 | 114 | 96.6 | 93.6 | 99.9 | 92.8 | 98.4 | – | – | – | – | – | – | – | – | – | – | –
15 | OC[C@H]1O[C@H](C[C@@H]1O)N2\C=C(F)/C(=O)NC2=O | 124 | 113 | 120 | 86.7 | 55.3 | 47.7 | 46.1 | 44.4 | 35.1 | 31.5 | 12.1 | 119 | 115 | 121 | 121 | 130 | 102 | 86.9 | 80.3 | 33.9 | 40.6 | 16.3 | 110 | 92.8 | 88.5 | 40.5 | 35.1 | 26.5 | 31.1 | 25.6 | 23.3 | 18.1 | 10.8
16 | CC[N+](CC)(CC)CCOc1cccc(OCC[N+](CC)(CC)CC)c1OCC[N+](CC)(CC)CC | – | – | – | – | – | – | – | – | – | – | – | 134 | 118 | 124 | 110 | 123 | 131 | 116 | 119 | 126 | 123 | 111 | 117 | 137 | 121 | 112 | 144 | 144 | 122 | 115 | 128 | 122 | 128
17 | C[N]1C=C(C2=CC=CC=C12)\C3=C(\C(=O)NC3=O)C4=C[N](C5CCN(CC5)CC6=NC=CC=C6)C7=C4C=CC=C7 | 98.6 | 113 | 102 | 119 | 114 | 116 | 125 | 118 | 112 | 71.6 | 109 | 95.2 | 108 | 114 | 119 | 112 | 104 | 111 | 93.3 | 102 | 66.4 | 87.5 | 98.6 | 124 | 109 | 118 | 118 | 127 | 119 | 111 | 101 | 69.2 | 117
